According to patent US4788188A, “Quinolylglycinamide derivatives, the process for preparation thereof and their therapeutic application as psychotropic drugs” (Sanofi (S.A.), priority 1985, dated 1988):
Structures can show the parent of a compound that is named as a salt.

What was measured:
benzodiazepine receptors = experiment: Affinity for benzodiazepine receptors: inhibition of specific binding of [3H]flunitrazepam (WASTEK et al., modified); design: species or system rats; conditions: 50% inhibition of specific binding of [3H]flunitrazepam, rat brain membranes
Procedure: This study was performed according to the technique of WASTEK et al., (Europ. J. Pharmacol., 1978, 50, 445-447) slightly modified.
Rats are sacrificed by decapitation, and the brain is removed, ground, suspended, centrifuged and resuspended.
Samples of this suspension are incubated in the presence of [^3 H]flunitrazepam, alone or in the presence of increasing concentrations of the test compound.
The radioactivity bound on the membranes is then determined by liquid scintillation.
The concentration of product which 50% inhibits the specific binding of [^3 H]flunitrazepam (IC50) is thereby determined.

pentetrazole seizures = experiment: Anticonvulsant activity: protection against pentetrazole seizures (EVERETT and RICHARDS); format: in vivo, mice; conditions: pentetrazole 125 mg/kg subcutaneously, no tonic seizures during 30 minutes, 95% confidence limits (FINNEY); for ED50: Mus musculus, po, 0.5 h, read-out: ED50 (Confidence interval)
Procedure: The protective effect produced by the compound of the inventon against pentetrazole seizures was studied.
This test was carried out according to the method of EVERETT and RICHARDS (J. Pharm. Exp. Ther., 1944, 81, 402-407). The test products and reference products were administered orally (suspended in gum arabic) to batches of 10 mice, 30 minutes […] pentetrazole (125 mg/kg subcutaneously).

food neophobia = experiment: Anxiolytic activity: food neophobia test; format: in vivo, mice; conditions: dose 4 mg/kg, PO, 30 minutes after treatment
Procedure: This activity was studied by the food neophobia test. In effect, a pronounced inhibition of the feed intake can be obtained in mice when both the food and the enclosure are unfamiliar to the aninal (R. J. STEPHENS, Brit. J. Pharmacol., 1973, 47, 145 P). All anxiolytics specifically counteract neophobia phenomena.
30 minutes after oral or subcutaneous treatment with the test derivatives and the reference products, the mice, fasted for 16 to 20 hours, are isolated in a translucent enclosure and placed in the presence of an unfamiliar food for 5 minutes.
The amounts consumed are evaluated in proportion to the weight of the animal.
In each batch, the mean consumption and also the percentage variation relative to the control batch are calculated in this manner.

| SMILES | IC50 (benzodiazepine receptors) [nM] | further results |
| --- | --- | --- |
| CCCN(CCC)C(=O)CNc1c(C(=O)OCC)cnc2ccc(OCC)cc12 [Derivative 16, 2-(3-Ethoxycarbonyl-6-ethoxy-4-quinolyl)amino-N,N-dipropylacetamide] | 38 | – |
| CCCCc1ccc2ncc(C(=O)OCC)c(NCC(=O)N(CC)CC)c2c1 [Derivative 6, 2-(3-Ethoxycarbonyl-6-butyl-4-quinolyl)amino-N,N-diethylacetamide] | 155 | – |
| CCOC(=O)c1cnc2ccc(Cl)cc2c1NCC(=O)N(C(C)C)C(C)C [Derivative 34, 2-(3-Ethoxycarbonyl-6-chloro-4-quinolyl)amino-N,N-diisopropylacetamide] | 48 | – |
| CCOC(=O)c1cnc2ccc(Cl)cc2c1NCC(=O)NC [Derivative 41, 2-(3-Ethoxycarbonyl-6-chloro-4-quinolyl)amino-N-methylacetamide] | 440 | ED50 (pentetrazole seizures): 46 mg/kg |
| CCCN(CCC)C(=O)CN(C)c1c(C(=O)OCC)cnc2ccc(Br)cc12 [Derivative 63, [N'-(3-Ethoxycarbonyl-6-bromo-4-quinolyl)-N'-methylamino]-N,N-dipropylacetamide] | – | ED50 (pentetrazole seizures): 24 mg/kg |
| CCOC(=O)c1cnc2ccc(Cl)cc2c1NCC(=O)N(C)C [Derivative 29, 2-(3-Ethoxycarbonyl-6-chloro-4-quinolyl)amino-N,N-dimethylacetamide] | 687 | ED50 (pentetrazole seizures): 38 mg/kg |
| CCCN(CCC)C(=O)CNc1c(C(C)=O)cnc2ccc(C)cc12 [Derivative 66, 2-(3-Acetyl-6-methyl-4-quinolyl)amino-N,N-dipropylacetamide] | 92 | – |
| CCCN(CCC)C(=O)CNc1c(C(=O)O)cnc2ccc(Br)cc12 [Derivative 47, 2-(3-Carboxy-6-bromo-4-quinolyl)amino-N,N-dipropylacetamide monohydrate] | 1 | – |
| CCCCOC(=O)c1cnc2ccc(Cl)cc2c1NCC(=O)N(CC)CC [Derivative 49, 2-(3-Butoxycarbonyl-6-chloro-4-quinolyl)amino-N,N-diethylacetamide] | 61 | ED50 (pentetrazole seizures): 54 mg/kg |
| CCCN(CCC)C(=O)CN(C)c1c(C(=O)OCc2ccccc2)cnc2ccc(C)cc12 [Derivative 53, [N'-(3-Benzyloxycarbonyl-6-methyl-4-quinolyl)-N'-methylamino]-N,N-dipropylacetamide] | 638 | – |
| CCOC(=O)c1cnc2ccc(C)cc2c1NCC(=O)N(CC)CC [Derivative 2, 2-[(3-Ethoxycarbonyl-6-methyl)-4-quinolyl]amino-N,N-diethylacetamide hydrochloride] | 41 | – |
| CCOC(=O)c1cnc2ccc(C3CCCCC3)cc2c1NCC(=O)N(CC)CC [Derivative 9, 2-(3-Ethoxycarbonyl-6-cyclohexyl-4-quinolyl)amino-N,N-diethylacetamide] | 900 | – |
| CCOC(=O)c1cnc2ccc(Cl)cc2c1NCC(=O)N(C)C1CCCCC1 [Derivative 23, 2-(3-Ethoxycarbonyl-6-chloro-4-quinolyl)amino-N-methyl-N-cyclohexylacetamide] | 100 | – |
| CCCN(C(=O)CNc1c(C(=O)OCC)cnc2ccc(Cl)cc12)c1ccccc1 [Derivative 35, 2-(3-Ethoxycarbonyl-6-chloro-4-quinolyl)amino-N-propyl-N-phenylacetamide] | 27 | – |
| CCCN(CCC)C(=O)CNc1c(C(=O)OCC)cnc2ccc([N+](=O)[O-])cc12 [Derivative 18, 2-(3-Ethoxycarbonyl-6-nitro-4-quinolyl)amino-N,N-dipropylacetamide] | 26 | – |
| CCN(CC)C(=O)CNc1c(C(=O)OCc2ccccc2)cnc2ccc(Cl)cc12 [Derivative 50, 2-(3-Benzyloxycarbonyl-6-chloro-4-quinolyl)amino-N,N-diethylacetamide] | 27 | – |
| CCN(CC)C(=O)CNc1c(C(=O)Nc2ccccc2)cnc2ccc(Cl)cc12 [Derivative 56, 2-[3-(N-Phenylcarbamoyl)-6-chloro-4-quinolyl]amino-N,N-diethylacetamide] | 136 | – |
| CCOC(=O)c1cnc2ccc(Cl)cc2c1NCC(=O)N1CCOCC1 [Derivative 28, 1-{2-[(3-Ethoxycarbonyl-6-chloro-4-quinolyl)amino]acetyl}morpholine] | 600 | – |
| O=C(O)c1cnc2ccc(Cl)cc2c1NCC(=O)N1CCCCCC1 [Derivative 45, 1-{2-[(3-Carboxy-6-chloro-4-quinolyl)amino]acetyl}-homopiperidine] | 7 | – |
| CCOC(=O)c1cnc2ccc(Cl)cc2c1NCC(=O)N1CCCCC1 [Derivative 25, 1-{2-[(3-Ethoxycarbonyl-6-chloro-4-quinolyl)amino]acetyl}piperidine] | 148 | ED50 (pentetrazole seizures): 33 mg/kg |

| SMILES | IC50 (benzodiazepine receptors) [nM] | further results |
| --- | --- | --- |
| CCCN(CCC)C(=O)CNc1c(C(=O)OCC)cnc2ccc(SC)cc12 [Derivative 20, 2-(3-Ethoxycarbonyl-6-methylthio-4-quinolyl)amino-N,N-dipropylacetamide] | 40 | – |
| CCOC(=O)c1cnc2ccc(Cl)cc2c1NCC(=O)N(CC(C)C)CC(C)C [Derivative 21, 2-(3-Ethoxycarbonyl-6-chloro-4-quinolyl)amino-N,N-diisobutylacetamide] | 28 | – |
| CN1C(=O)CN=C(c2ccccc2)c2cc(Cl)ccc21 [Diazepam, diazepam, reference compound] | 10 | Percentage increase (food consumption relative to control batch) (food neophobia): 80% |
| CCOC(=O)c1cnc2ccccc2c1NCC(=O)N(CC)CC [Derivative 10, 2-(3-Ethoxycarbonyl-4-quinolyl)amino-N,N-diethylacetamide] | 1560 | ED50 (pentetrazole seizures): 68 mg/kg |
| CCC1(c2ccccc2)C(=O)NC(=O)NC1=O [Phenobarbital, reference compound] | – | ED50 (pentetrazole seizures): 10 mg/kg |
| C#CCN(C)C(=O)CNc1c(C(=O)OCC)cnc2ccc(Cl)cc12 [Derivative 36, 2-(3-Ethoxycarbonyl-6-chloro-4-quinolyl)amino-N-methyl-N-(2-propynyl)acetamide] | 99 | – |
| CCCN(CCC)C(=O)CNc1c(C(=O)OCC)cnc2ccccc12 [Derivative 15, 2-(3-Ethoxycarbonyl-4-quinolyl)amino-N,N-dipropylacetamide] | 483 | – |
| CCOC(=O)c1cnc2ccc(Cl)cc2c1NCC(=O)N(C)c1ccc(Cl)cc1 [Derivative 24, 2-(3-Ethoxycarbonyl-6-chloro-4-quinolyl)amino-N-methyl-N-(4-chlorophenyl)acetamide] | 251 | – |
| CCOC(=O)c1cnc2ccc(Cl)cc2c1NCC(N)=O [Derivative 30, 2-[(3-Ethoxycarbonyl-6-chloro-4-quinolyl)amino]acetamide] | 700 | – |
| CCN(CC)C(=O)CNc1c(C(=O)OC(C)C)cnc2ccc(Cl)cc12 [Derivative 48, 2-(3-Isopropyloxycarbonyl-6-chloro-4-quinolyl)amino-N,N-diethylacetamide] | 69 | – |
| CCCN(CCC)C(=O)CN(C)c1c(C(=O)OCc2ccccc2)cnc2ccc(Cl)cc12 [Derivative 52, [N'-(3-Benzyloxycarbonyl-6-chloro-4-quinolyl)-N'-methylamino]-N,N-dipropylacetamide] | 727 | ED50 (pentetrazole seizures): 31 mg/kg |
| CCCN(CCC)C(=O)CN(C)c1c(C(=O)OCC)cnc2ccc(C)cc12.Cl [Derivative 61, [N'-(3-Ethoxycarbonyl-6-methyl-4-quinolyl)-N'-methylamino]-N,N-dipropylacetamide hydrochloride] | – | ED50 (pentetrazole seizures): 24 mg/kg |
| CCOC(=O)c1cnc2ccc(Cl)cc2c1NCC(=O)N1CCCCCC1 [Derivative 27, 1-{2-[(3-Ethoxycarbonyl-6-chloro-4-quinolyl)amino]acetyl}homopiperidine] | 38 | – |
| CCOC(=O)c1cnc2ccc(F)cc2c1NCC(=O)N(CC)CC [Derivative 7, 2-(3-Ethoxycarbonyl-6-fluoro-4-quinolyl)amino-N,N-diethylacetamide] | 639 | – |
| CCOC(=O)c1cnc2ccc(Cl)cc2c1NCC(=O)N1CCCC1 [Derivative 26, 1-{2-[(3-Ethoxycarbonyl-6-chloro-4-quinolyl)amino]acetyl}pyrrolidine] | 333 | ED50 (pentetrazole seizures): 50 mg/kg |
| CCOC(=O)c1cnc2ccc(Cl)cc2c1NCC(=O)N(C)c1ccccc1 [Derivative 22, 2-(3-Ethoxycarbonyl-6-chloro-4-quinolyl)amino-N-methyl-N-phenylacetamide] | 14 | – |
| CCOC(=O)c1cnc2ccc(Cl)cc2c1NCC(=O)N(CC)CC [1 maleate] | – | ED50 (Confidence interval) (pentetrazole seizures; oral, 30 min): 27 (18-36) mg/kg |
| CCCNC(=O)c1cnc2ccc(Cl)cc2c1NCC(=O)N(CC)CC [Derivative 55, 2-[3-(N-Propylcarbamoyl)-6-chloro-4-quinolyl]amino-N,N-diethylacetamide] | 150 | – |
| CCCN(CCC)C(=O)CNc1c(C(=O)OCC)cnc2ccc(C(F)(F)F)cc12 [Derivative 19, 2-(3-Ethoxycarbonyl-6-trifluoromethyl-4-quinolyl)amino-N,N-dipropylacetamide] | 28 | – |
